Converted amounts (≈) assume the structure as drawn. The source made the active and inactive calls. The rule behind the calls is not given here. Where a SMILES comes first, the peptide text is derived from it. [ ]: non-standard residue; d: D form. NMePhe(4-Br) = CN[C@@H](Cc1ccc(Br)cc1)C(=O)O; Phe(4-Br) = N[C@@H](Cc1ccc(Br)cc1)C(=O)O; NMeF = CN[C@@H](Cc1ccccc1)C(=O)O; Hica(2S) = CC(C)C[C@H](O)C(=O)O; NMeL = CN[C@@H](CC(C)C)C(=O)O; NMeV = CN[C@H](C(=O)O)C(C)C
How the values were obtained:
[1] = system: WM-115; assay: Concentration at which the compound exibit good activity WM-115 human melanoma cells; format: functional, cell-based
[2] = system: Cancer cell lines; assay: Inhibitory activity against AsPC-1 human pancreatic cancer cells; demonstarted good activity; format: functional, cell-based
[3] = system: Cancer cell lines; assay: Inhibitory activity against S2-013 human pancreatic cancer cells; demonstarted good activity; format: functional, cell-based
[4] = system: MDA-MB-231; assay: Inhibitory activity against MDA-MB-231 human […] cancer cells; demonstarted good activity; format: functional, cell-based
[5] = system: PC-3; assay: Inhibitory activity against PC-3 human prostate cancer cells; demonstarted good activity; format: functional, cell-based
[6] = system: PC-3; assay: Concentration at which the compound exibit more potency against PC-3 human prostate cancer cells; format: functional, cell-based
[7] = system: Cancer cell lines; assay: Concentration at which the compound exibit more potency agains AsPC-1 human pancreatic cancer cells; format: functional, cell-based
[8] = system: MDA-MB-231; assay: Concentration at which the compound exibit more potency against MDA-MB-231 human […] cancer cells; format: functional, cell-based
[9] = system: MDA-MB-231; assay: Effect of N-methylation in MDA-MB-231 human […] cancer cells; exibit less potency; format: functional, cell-based
[10] = system: MDA-MB-231; assay: Inhibitory activity against MDA-MB-231 cells; demonstarted high activity; format: functional, cell-based; conditions: Homo sapiens
[11] = system: PC-3; assay: Effect of N-methylation in PC-3 human prostate cancer cells; format: functional, cell-based
[12] = system: PC-3; assay: Effect of N-methylation in PC-3 human prostate cancer cells; exhibited more potency; format: functional, cell-based
[13] = system: MDA-MB-231; assay: Effect of N-methylation in MDA-MB-231 human […] cancer cells; exibit high potency; format: functional, cell-based
[14] = system: MDA-MB-231; assay: Inhibitory activity against MDA-MB-231 cells; exhibited moderate activity; format: functional, cell-based; conditions: Homo sapiens
[15] = Mean inhibitory concentration against cancer cell lines; format: functional, cell-based, Homo sapiens
[16] = system: WM-115; assay: Potency against human WM-115 cells; exhibited average potency; format: functional, cell-based
[17] = system: PC-3; assay: Effect of N-methylation in PC-3 human prostate cancer cells; exhibited lowest activity; format: functional, cell-based
[18] = system: Cancer cell lines; assay: Potency exhibited by the compound against well-differentiated S2-013 human pancreatic cancer cell line; much more potent; format: functional, cell-based
[19] = system: PC-3; assay: Effective concentration against PC-3 human prostate cancer cells; format: functional, cell-based

With CC(C)C[C@@H]1NC(=O)[C@H](CC(C)C)NC(=O)[C@H](Cc2ccc(Br)cc2)N(C)C(=O)[C@H](CC(C)C)NC(=O)[C@H](C(C)C)NC1=O (cyclo([NMePhe(4-Br)]LLVL)) the Concentration [1] was 10 µM, the Activity [2] was “Active” and the Activity [3] was “Active”. The Activity [4] was “Active” and the Activity [5] was “Active”.

CC(C)C[C@@H]1NC(=O)[C@H](Cc2ccc(Br)cc2)NC(=O)[C@H](CC(C)C)N(C)C(=O)[C@H](C(C)C)NC(=O)[C@H](CC(C)C)NC1=O (cyclo([Phe(4-Br)]LLV[NMeL])) gave a Concentration [1] of 10 µM, a Concentration [6] of 10 µM and a Concentration [7] of 10 µM. The Concentration [8] was 10 µM and the Activity [3] was “Active”.

In the case of CC(C)C[C@@H]1NC(=O)[C@H](C(C)C)NC(=O)[C@H](CC(C)C)N(C)C(=O)[C@H](CC(C)C)NC(=O)[C@H](Cc2ccc(Br)cc2)NC1=O (cyclo([Phe(4-Br)]L[NMeL]VL)), the Activity [9] is reported as “Potent”, the Activity [10] is reported as “Active” and the Activity [11] is reported as “Not Very Active”.

For CC(C)C[C@@H]1NC(=O)[C@H](Cc2ccc(Br)cc2)NC(=O)[C@H](CC(C)C)NC(=O)[C@H](C(C)C)NC(=O)[C@H](CC(C)C)NC1=O (cyclo([Phe(4-Br)]LLVL)), the Activity [12] was “More potent” and the Activity [13] was “Potent”.

In the case of CC(C)C[C@@H]1NC(=O)[C@H](Cc2ccccc2)NC(=O)[C@H](CC(C)C)NC(=O)[C@H](C(C)C)N(C)C(=O)[C@H](CC(C)C)NC1=O (cyclo(FLL[NMeV]L)), the Activity [14] is reported as “Active”.

For CC(C)C[C@@H]1NC(=O)[C@H](CC(C)C)NC(=O)[C@H](Cc2ccccc2)N(C)C(=O)[C@H](CC(C)C)NC(=O)[C@H](C(C)C)NC1=O (cyclo([NMeF]LLVL)), the Activity [9] was “Potent” and the Activity [11] was “Not Very Active”.

Work on CC(C)C[C@@H]1NC(=O)[C@H](C(C)C)NC(=O)[C@H](CC(C)C)OC(=O)[C@H](CC(C)C)NC(=O)[C@H](Cc2ccccc2)NC1=O (cyclo(FL[Hica(2S)]VL)) yielded an IC50 [15] of 27.4 µg/mL (≈ 46.7 µM).

With CC(C)C[C@@H]1NC(=O)[C@H](C(C)C)NC(=O)[C@H](CC(C)C)NC(=O)[C@H](CC(C)C)N(C)C(=O)[C@H](Cc2ccccc2)NC1=O (cyclo(F[NMeL]LVL)) the Activity [9] was “Potent” and the Activity [11] was “Not Very Active”.

With CC(C)C[C@@H]1NC(=O)[C@H](Cc2ccccc2)NC(=O)[C@H](CC(C)C)N(C)C(=O)[C@H](C(C)C)NC(=O)[C@H](CC(C)C)NC1=O (cyclo(FLLV[NMeL])) the Activity [14] was “Active”.

In the case of CC(C)C[C@@H]1NC(=O)[C@H](C(C)C)NC(=O)[C@H](CC(C)C)N(C)C(=O)[C@H](CC(C)C)NC(=O)[C@H](Cc2ccccc2)NC1=O (cyclo(FL[NMeL]VL)), the Activity [9] is reported as “Potent”.

With CC(C)C[C@@H]1NC(=O)[C@H](Cc2ccc(Br)cc2)NC(=O)[C@H](CC(C)C)NC(=O)[C@H](C(C)C)N(C)C(=O)[C@H](CC(C)C)NC1=O (cyclo([Phe(4-Br)]LL[NMeV]L)) the Activity [14] was “Active”.

With CC(C)C[C@@H]1NC(=O)[C@H](Cc2ccccc2)NC(=O)[C@H](CC(C)C)NC(=O)[C@H](C(C)C)NC(=O)[C@H](CC(C)C)NC1=O (cyclo(FLLVL)) the Activity [16] was “Active”, the Activity [9] was “Potent” and the Activity [17] was “Not Very Active”.

In the case of CC(C)C[C@@H]1NC(=O)[C@H](C(C)C)NC(=O)[C@H](CC(C)C)NC(=O)[C@H](CC(C)C)N(C)C(=O)[C@H](Cc2ccc(Br)cc2)NC1=O (cyclo([Phe(4-Br)][NMeL]LVL)), the Concentration [6] is reported as 10 µM, the Activity [18] is reported as “Active” and the Activity [2] is reported as “Active”. For the same compound, the Concentration [8] was 10 µM and the EC50 [19] was 7.5 µM.

Source: ChEMBL document CHEMBL1141930, “N-methylsansalvamide a peptide analogues. Potent new antitumor agents” (J Med Chem, 2005)
